“And” between values parts separate entries of the source, which are not always exact repeats. Equal values may be shown once. Inconclusive results and toxic doses are left out.
Tested on: P388 leukemia ip, CD2F1 mice, survival T/C
Test: NCI In Vivo Anticancer Drug Screen. Data for tumor model P388 Leukemia (intraperitoneal) in CD2F1 (CDF1) mice
Conditions: endpoint: median survival time, higher = longer survival
Procedure, shortened: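 Mice carrying the transplanted tumor received test compound or vehicle. Survival was recorded in each group, and the value is the treated-group measurement divided by that of the vehicle-treated control group.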

[1] = dose: 25.0 mg/kg/injection, schedule: Q01DX005 (ip), vehicle: saline with Tween-80
[2] = dose: 50.0 mg/kg/injection, schedule: Q01DX005 (ip), vehicle: saline with Tween-80
[3] = dose: 100.0 mg/kg/injection, schedule: Q01DX005 (ip), vehicle: saline with Tween-80
[4] = dose: 200.0 mg/kg/injection, schedule: Q01DX005 (ip), vehicle: saline with Tween-80
[5] = dose: 100.0 mg/kg/injection, schedule: Q04DX003 (ip), vehicle: Klucel (hydroxypropylcellulose) (HPC)
[6] = dose: 200.0 mg/kg/injection, schedule: Q04DX003 (ip), vehicle: Klucel (hydroxypropylcellulose) (HPC)
[7] = dose: 15.0 mg/kg/injection, schedule: Q01DX005 (ip), vehicle: saline with Tween-80
[8] = dose: 30.0 mg/kg/injection, schedule: Q01DX005 (ip), vehicle: saline with Tween-80
[9] = dose: 100.0 mg/kg/injection, schedule: Q01DX009 (ip), vehicle: saline with Tween-80
[10] = dose: 200.0 mg/kg/injection, schedule: Q01DX009 (ip), vehicle: saline with Tween-80
[11] = dose: 7.5 mg/kg/injection, schedule: Q01DX005 (ip), vehicle: saline with Tween-80

SMILES: COc1ccc2c3c1OC1C(OC)(OC)C=CC4(F)[C@@H](C2)N(C)CC[C@]314 (some centres not stated)
- T/C (dose: 100.0 mg/kg/injection, schedule: Q01DX001 (ip), vehicle: Klucel (hydroxypropylcellulose) (HPC)): 105 % of control
- T/C (dose: 200.0 mg/kg/injection, schedule: Q01DX001 (ip), vehicle: Klucel (hydroxypropylcellulose) (HPC)): 100 % of control
- T/C (dose: 400.0 mg/kg/injection, schedule: Q01DX001 (ip), vehicle: Klucel (hydroxypropylcellulose) (HPC)): 96 % of control

SMILES: O=C1C=CC(=O)N1C(=O)NC(NC(=O)N1C(=O)C=CC1=O)c1ccc2c(c1)OCO2
- T/C [1]: 102 % of control
- T/C [2]: 98 % of control
- T/C [3]: 95 % of control
- T/C [4]: 102 % of control

SMILES: Cn1nc2c(cc1=O)Cc1ccccc1-2
- T/C [2]: 103 % of control
- T/C [3]: 98 % of control
- T/C [4]: 101 % of control

SMILES: COc1ccc2c3c([nH]c2c1[N+](=O)[O-])C(C)N(C)CC3 (configuration not stated)
- T/C (dose: 8.5 mg/kg/injection, schedule: Q01DX005 (ip), vehicle: Klucel (hydroxypropylcellulose) (HPC)): 107 % of control
- T/C (dose: 17.0 mg/kg/injection, schedule: Q01DX005 (ip), vehicle: Klucel (hydroxypropylcellulose) (HPC)): 101 % of control

SMILES: Oc1cc(O)c(-c2c(O)cc(O)cc2O)c(O)c1 (tested in a mixture with another compound)
- T/C (dose: 1.56 mg/kg/injection, schedule: Q01DX005 (ip), vehicle: saline): 97 % of control
- T/C (dose: 3.12 mg/kg/injection, schedule: Q01DX005 (ip), vehicle: saline): 106 % of control
- T/C (dose: 6.25 mg/kg/injection, schedule: Q01DX005 (ip), vehicle: saline): 111 % of control
- T/C (dose: 12.5 mg/kg/injection, schedule: Q01DX005 (ip), vehicle: saline): 101 % of control
- T/C (dose: 25.0 mg/kg/injection, schedule: Q01DX005 (ip), vehicle: saline): 96 % of control
- T/C (dose: 50.0 mg/kg/injection, schedule: Q01DX005 (ip), vehicle: saline): 108 % of control

SMILES: Cn1c(N)c(C(=O)Cc2ccccc2)c(=O)n(C)c1=O
- T/C [5]: 109 % of control
- T/C [6]: 100 % of control
- T/C (dose: 400.0 mg/kg/injection, schedule: Q04DX003 (ip), vehicle: Klucel (hydroxypropylcellulose) (HPC)): 109 % of control

SMILES: Cc1ccc2c(c1)-c1[nH]c3ccccc3c1CS2
- T/C [5]: 104 % of control
- T/C [6]: 115 % of control

SMILES: Fc1ccccc1C(Nc1nncs1)Nc1nncs1
- T/C [7]: 95 % of control
- T/C [8]: 94 % of control
- T/C (dose: 60.0 mg/kg/injection, schedule: Q01DX005 (ip), vehicle: saline with Tween-80): 102 % of control and 104 % of control

SMILES: CCC1C2Cc3ccc(O)cc3C1(CC)CCN2Cc1ccoc1 (configuration not stated)
- T/C (dose: 50.0 mg/kg/injection, schedule: Q01DX009 (ip), vehicle: saline with Tween-80): 96 % of control
- T/C [9]: 88 % of control
- T/C [10]: 91 % of control

SMILES: N#CC(=O)Nc1cc(Cl)cc(Cl)c1
- T/C [11]: 100 % of control
- T/C [7]: 102 % of control

SMILES: C=C1C(=O)CCC1/C=C\C (configuration not stated)
- T/C (dose: 12.5 mg/kg/injection, schedule: Q01DX005 (ip), vehicle: saline with Tween-80): 111 % of control
- T/C [1]: 110 % of control
- T/C [2]: 99 % of control

SMILES: O=C1/C(=C\c2ccccc2)C2OCC=C3CN4CCC56c7ccccc7N1C5C2C3CC46 (configuration not stated)
- T/C [11]: 106 % of control
- T/C [7]: 108 % of control
- T/C [8]: 99 % of control

SMILES: Cn1c(CCCC(=O)O)nc2cc(N(CCCl)CCCl)ccc21
- T/C (dose: 5.0 mg/kg/injection, schedule: Q01DX009 (ip), vehicle: saline sonified): 154 % of control
- T/C (dose: 9.9 mg/kg/injection, schedule: Q04DX003 (ip), vehicle: saline with Tween-80): 150 % of control
- T/C (dose: 10.0 mg/kg/injection, schedule: Q01DX009 (ip), vehicle: saline sonified): 168 % of control
- T/C (dose: 22.5 mg/kg/injection, schedule: Q04DX003 (ip), vehicle: saline with Tween-80): 163 % of control

SMILES: CCCCn1cnc2c(=S)nc[nH]c21
- T/C [2]: 94 % of control
- T/C [3]: 105 % of control
- T/C [4]: 102 % of control

SMILES: CNS(=O)(=O)c1ccc2c(c1)nc(SC)n2C
- T/C [9]: 100 % of control
- T/C [10]: 100 % of control
- T/C (dose: 400.0 mg/kg/injection, schedule: Q01DX009 (ip), vehicle: saline with Tween-80): 95 % of control
